“Also recorded” adds a separate entry of the source. No end group written: not given here.
Tests used:
[1] = Chemical stability testing: incubation in HCl, NaOH, H2O2 or NH4HCO3 at 40° C., remaining purity by RP-HPLC; type: physicochemical; conditions: 40° C.; for Purity H2O2 0.5% 3 days / Purity HCl 0.1M 12 days / Purity NH4HCO3 0.1M 6 days: 2 mg/ml, relative to the purity at T=0; for Purity H2O2 0.5% 3 days / Purity HCl 0.1M 12 days: RP-HPLC; for Purity NH4HCO3 0.1M 6 days: pH 8, RP-HPLC; for Stability during acid hydrolysis (in words): 0.1 M HCl, 12 days
Protocol: The GLP-2 analogues were dissolved in purified water and subsequently diluted in solutions containing HCl, NaOH, H2O2 or NH4HCO3. The solutions were incubated at 40° C. to produce hydrolysis, deamidation and oxidation products. The samples were analyzed by RP-HPLC and the percentage of remaining intact compound was determined as a measure for the relative stability. The major degradation products were tentatively identified by LC-MS.
The GLP-2 analogues tested and the reference Gly^2-GLP-2, ZP1559 (SEQ ID NO:54), were dissolved in water and subsequently diluted into solutions containing HCl, NaOH, H2O2 or NH4HCO3. The samples were incubated at 40° C. to generate hydrolysis, deamidation and oxidation products, respectively. The compounds were analysed by RP-HPLC for purity of the original main peak and by LC-MS for confirmation of the identity by mass of the main peak and major degradation products.
The GLP-2 analogues were first dissolved in MQW to a concentration of 4 mg/ml and then further diluted in the stress solutions at a 1:1 ratio (e.g. 125 μl plus 125 μl). The final concentrations were 2 mg/ml of the GLP-2 analogues for stress conditions with 0.1 M HCl, 0.01M NaOH, 0.1 M NH4HCO3 and 0.5% H2O2, respectively.
The solutions were incubated at 40° C. in the dark and then diluted in Eluent A to a concentration of 0.5 mg/ml (addition of 750 μl) prior to analyses by RP-HPLC and by LC-MS.
The RP-HPLC analyses were performed on an Agilent Series 1100 HPLC system under control of the ChemStation (Revision A.08.03 [847]) software from Agilent Technologies, Inc. The raw data and the results of the peak integration were deposited on the ChemStore C/S server by the use of Agilent Technologies Revision B01.03 software.
The results are shown in Table 9 as the compound purity measured by RP-HPLC after incubation under stress conditions. This purity is a measure for the remaining intact compound after incubation in stress solutions, relative to the purity measured a T=0.

[2] = system: male C57BL mice; experiment: Screening for intestinal growth effects (small intestine and colon mass relative to body weight, small intestine-colon sensitivity index); type: in vivo; conditions: for Small intestine mass relative to [Gly2]GLP-2 / Preferential growth of small intestine versus colon (small intestine-colon sensitivity): 30 nmol/kg s.c. twice daily, ten days; for Small intestine mass relative to [Gly2]GLP-2: equimolar [Gly2]GLP-2; for Preferential growth of small intestine versus colon (small intestine-colon sensitivity): relative to [Gly2]GLP-2; for colon mass relative to body weight, % [Gly2]GLP-2 / small intestine-colon sensitivity index, (SI/Colon)X/(SI/Colon)[Gly2]GLP-2 %: male C57BL mice, 30 nmol/kg s.c. twice daily for ten days; for small intestine-colon sensitivity index, (SI/Colon)X/(SI/Colon)[Gly2]GLP-2 %: third value column
Protocol: The ability of the present compounds to stimulate intestinal growth was determined in male C57BL mice. Individual groups (n=6) of mice were given 30 nmol/kg of each compound, s.c, twice daily for ten consecutive days. For comparison purposes other groups of animals were given either an equimolar dose of [Gly2]GLP-2 (SEQ ID NO:54) or vehicle (phosphate buffered saline, pH 7.4) in the same dosing regimen. Twenty-four hours after the last dose of compound had been given the mice were sacrificed and the small intestine (from the pylorus to the cecum) and the colon (intestine distal to cecum) was emptied and weighed. To correct for slight difference in body weight (BW), the organ mass of the small intestine (SI) and colon were expressed relative to BW. The non-selective reference compound [Gly2]GLP-2 (SEQ ID NO:54) has been reported to stimulate gastrointestinal growth in both esophagus, stomach, small intestine and colon and to evaluate differences in growth pattern induced by compounds, the small intestine-colon sensitivity index of compound X was calculated as:
(SI/Colon)X/(SI/Colon)[Gly2]GLP-2%
Compounds with a small intestine-colon sensitivity greater than or equal to 1.05 were considered relatively selective for the small intestine (Table 15).
Compounds with a small intestine-colon sensitivity smaller than or equal to 0.95 were considered relatively selective for the colon (Table 15).

[3] = system: male C57BL mice; experiment: Dose-response effect on intestinal growth (SI mass, SI-Colon Sensitivity Index, colon and stomach mass); type: in vivo; conditions: 5-405 nmol/kg s.c. b.i.d. for three days
Protocol: Values are means±SEM. *: P<0.05 relative to the equimolar dose of [Gly2]GLP-2 (SEQ ID NO:54).
FIG. 2 is a set of graphs showing full dose-response data of four small intestine selective compounds (compound nos. 1846 (SEQ ID NO:34), 1855 (SEQ ID NO:43), 1848 (SEQ ID NO:36), 1858 (SEQ ID NO:46)) on the Small Intestine (SI)-to-Colon Sensitivity Index mice relative to the non-selective reference compound [Gly2]GLP-2 (SEQ ID NO:54). Compounds were administered by subcutaneous injection b.i.d. for three days in C57BL mice at the following doses: 0 (vehicle), 5, 15, 45, 135, 405 nmol/kg (n=6/dose group). Responses at each dose level were compared with responses obtained at the same dose level in pair-treated mice treated with the non-selective reference compound [Gly2]GLP-2 (SEQ ID NO:54). The SI-Colon Sensitivity Index was calculated as SI-mass relative to colon mass and the Sensitivity Index at each dose level was normalized to the response observed with the non-selective reference compound [Gly2]GLP-2 (SEQ ID NO:54). […] Values are means±SEM. *: P<0.05 relative to the equimolar dose of [Gly2]GLP-2.
FIG. 4 is a set of graphs showing full dose-response data of three small intestine selective compounds (compound nos. 1857 (SEQ ID NO:45), 1820 (SEQ ID NO:10), and 1849 (SEQ ID NO:37)) on the Small Intestine (SI)-to-Colon Sensitivity Index mice relative to the non-selective reference compound [Gly2]GLP-2 (SEQ ID NO:54). Compounds were administered by subcutaneous injection b.i.d. for three days in C57BL mice at the following doses: 0 (vehicle), 5, 15, 45, 135, 405 nmol/kg (n=6/dose group). Responses at each dose level were compared with responses obtained at the same dose level in pair-treated mice treated with the non-selective reference compound [Gly2]GLP-2 (SEQ ID NO:54). The SI-Colon Sensitivity Index was calculated as SI-mass relative to colon mass and the Sensitivity Index at each dose level was normalized to the response observed with the non-selective reference compound [Gly2]GLP-2 (SEQ ID NO:54). […] Values are means±SEM. *: P<0.05 relative to the equimolar dose of [Gly2]GLP-2 (SEQ ID NO:54).
Compounds were administered by subcutaneous injection b.i.d. for three days in C57BL mice at the following doses: 0 (vehicle), 5, 15, 45, 135, 405 nmol/kg (n=6/dose group). […] Values are means±SEM. *: P<0.05 relative to the vehicle.
The dose-response effect of 1820 (SEQ ID NO:10), 1855 (SEQ ID NO:43), ZP1846 (SEQ ID NO:34), 1858 (SEQ ID NO:46), 1849 (SEQ ID NO:37), 1848 (SEQ ID NO:36), and 1857 (SEQ ID NO:45) on small intestinal mass was determined in male C57BL mice. Individual groups (n=6) of mice were given 5, 15, 45, 135 or 405 nmol/kg of each compound, s.c, twice daily for three consecutive days. For comparison purposes other groups of animals were given either equimolar doses of [Gly2]GLP-2 (SEQ ID NO:54) or vehicle (phosphate buffered saline, pH 7.4) in the same dosing regimen. Twenty-four hours after the last dose of compound had been given the mice were sacrificed and the small intestine (from the pylorus to the cecum emptied and weighed to determine the effect on small intestinal mass.

**Q.** Which results are given for “[Gly2, Glu3, Ser8, Leu10, Ala11,16,24,28]hGLP-2(1-33)-(Lys)6-NH2 (HGEGSFSSELATILDALAARDFIAWLIATKITDKKKKKK-NH2) [Compound 1849]”?
**A.** Purity H2O2 0.5% 3 days [1]: 78%; Purity HCl 0.1M 12 days [1]: 64%; Purity NH4HCO3 0.1M 6 days [1]: 86%; Small intestine mass relative to [Gly2]GLP-2 [2]: increased small intestine mass relative to [Gly2]GLP-2; Preferential growth of small intestine versus colon (small intestine-colon sensitivity) [2]: supplementary increase in the weight of the small intestine without significant effecting the weight of the colon; also recorded: preferentially stimulating epithelial growth in the small intestine; colon mass relative to body weight, % [Gly2]GLP-2 [2]: 95 % [Gly2]GLP-2; small intestine-colon sensitivity index, (SI/Colon)X/(SI/Colon)[Gly2]GLP-2 % [2]: 115 % [Gly2]GLP-2; SI-Colon Sensitivity Index (SI mass relative to colon mass) relative to [Gly2]GLP-2 [3]: increased maximal small intestinal sensitivity relative to [Gly2]GLP-2; also recorded: increased selectivity for causing growth of the small intestine relative to the colon; Small intestinal mass (SI-BW ratio), maximal response relative to [Gly2]GLP-2 [3]: maximal responses that were significantly greater than [Gly2]GLP-2

**Q.** Which results are given for “[Gly2, Glu3, Ser8, Leu10, Ala11,16,24,28]hGLP-2(1-33)-NH2 (HGEGSFSSELATILDALAARDFIAWLIATKITD-NH2) [Compound 1858]”?
**A.** Stability during acid hydrolysis (in words) [1]: tendency of slightly higher stability; Purity H2O2 0.5% 3 days [1]: 60%; Purity HCl 0.1M 12 days [1]: 88%; Purity NH4HCO3 0.1M 6 days [1]: 91%; Small intestine mass relative to [Gly2]GLP-2 [2]: increased small intestine mass relative to [Gly2]GLP-2; Preferential growth of small intestine versus colon (small intestine-colon sensitivity) [2]: supplementary increase in the weight of the small intestine without significant effecting the weight of the colon; also recorded: preferentially stimulating epithelial growth in the small intestine; colon mass relative to body weight, % [Gly2]GLP-2 [2]: 96 % [Gly2]GLP-2; small intestine-colon sensitivity index, (SI/Colon)X/(SI/Colon)[Gly2]GLP-2 % [2]: 108 % [Gly2]GLP-2; Small intestinal mass (SI-BW ratio), maximal response relative to [Gly2]GLP-2 [3]: maximal responses that were significant greater than [Gly2]GLP-2

**Q.** Which “Stability during acid hydrolysis (in words)” value [1] does the source give for “[Gly2, Thr7, Ser8, Leu10, Ala11,24]hGLP-2(1-30)-K6-NH2 [Compound 1820]” here?
**A.** less stable than the remaining six candidates due to acid hydrolysis

**Q.** What about the “Purity H2O2 0.5% 3 days” value [1] of the same substance?
**A.** 62%

**Q.** And the “Purity HCl 0.1M 12 days” value [1]?
**A.** 45%

**Q.** What about the “Purity NH4HCO3 0.1M 6 days” value [1] of the same substance?
**A.** 85%

**Q.** And the “Small intestine mass relative to [Gly2]GLP-2” value [2]?
**A.** increased small intestine mass relative to [Gly2]GLP-2

**Q.** And the “Preferential growth of small intestine versus colon (small intestine-colon sensitivity)” value [2]?
**A.** supplementary increase in the weight of the small intestine without significant effecting the weight of the colon; also recorded: preferentially stimulating epithelial growth in the small intestine

**Q.** What about the “SI-Colon Sensitivity Index (SI mass relative to colon mass) relative to [Gly2]GLP-2” value [3] of the same substance?
**A.** increased maximal small intestinal sensitivity relative to [Gly2]GLP-2

**Q.** And the “Small intestinal mass (SI-BW ratio), maximal response relative to [Gly2]GLP-2” value [3]?
**A.** maximal responses that were significantly greater than [Gly2]GLP-2

**Q.** Which “Stability during acid hydrolysis (in words)” value [1] does the source give for “[Gly2, Thr7, Ser8, Leu10, Ala11,24]hGLP-2(1-30)-NH2 (HGDGSFTSELATILDNLAARDFIAWLIQTK-NH2) [Compound 1834]” here?
**A.** less stable than the remaining six candidates due to acid hydrolysis

**Q.** What about the “Purity H2O2 0.5% 3 days” value [1] of the same substance?
**A.** 53%

**Q.** And the “Purity HCl 0.1M 12 days” value [1]?
**A.** 38%

**Q.** And the “Purity NH4HCO3 0.1M 6 days” value [1]?
**A.** 91%

**Q.** What about the “Preferential growth of small intestine versus colon (small intestine-colon sensitivity)” value [2] of the same substance?
**A.** without preferential growth in small intestine or colon

**Q.** Which “Preferential growth of small intestine versus colon (small intestine-colon sensitivity)” value [2] does the source give for “[Thr7, Leu10, Ala11, Ala24]hGLP-2 (1-30)-NH2 [Compound 1843]” here?
**A.** preferentially stimulating epithelial growth in the colon

**Q.** And the “colon mass relative to body weight, % [Gly2]GLP-2” value [2]?
**A.** 130 % [Gly2]GLP-2

**Q.** And the “small intestine-colon sensitivity index, (SI/Colon)X/(SI/Colon)[Gly2]GLP-2 %” value [2]?
**A.** 85 % [Gly2]GLP-2

**Q.** For “[Thr7, Ser8, Leu10, Lys11, Ala24]hGLP-2 (1-30)-NH2 [Compound 1842]”, which “Preferential growth of small intestine versus colon (small intestine-colon sensitivity)” value [2] is on record?
**A.** without preferential growth in small intestine or colon
